Measured values reported in article PMC12635268, “Novel antimicrobial peptides and peptide-microbiome crosstalk in Appalachian salamander skin” (NPJ Biofilms and Microbiomes, 2025).
Read-outs that look alike come from different tables or passages of the source. Ends that are not written are not given here.

Assays:
[1] = tested on: A. baumannii ATCC 17978; assay: microbe, parasite or virus in culture
Experimental: (§1) Antimicrobial susceptibility testing of the 20 synthesized peptides against 17 bacterial strains of clinical relevance in the ESKAPEE panel was conducted using minimum inhibitory concentration (MIC) assays following the broth microdilution method outlined by Parker et al.[91]. The ESKAPEE panel is comprised of fourteen American Type Culture Collection (ATCC) strains and three Multidrug Resistant Organism Repository and Surveillance Network (MRSN) bacterial strains. These strains represent at least one drug-susceptible strain and one drug-resistant strain for each bacterium to assess drug efficacy across various resistance mechanisms. This panel is comprised of the following bacterial species and strains: E. faecium (ATCC 19434, ATCC 49224), S. aureus (ATCC 25923, ATCC 43300), K. pneumoniae (ATCC 700603, ATCC 13883, MRSN 1320), A. baumannii (ATCC 17978, ATCC 19606, MRSN 959), P. aeruginosa (ATCC 15692, ATCC 27853, MRSN 5519), E. cloacae (ATCC 13047, ATCC 35549), and E. coli (ATCC 35218, ATCC 43888). Bacteria were grown in cation-adjusted Mueller-Hinton broth (CAMHB) to achieve a final inoculum of 1 × 10⁵ CFU/mL. CAMHB is selected for its batch-to-batch reproducibility, low levels of antimicrobial inhibitors, and ability to support the growth of most bacterial pathogens.
(§2) Briefly, lyophilized peptides were dissolved in 0.2% TFA + 0.4% BSA in water to 2.56 mg/mL, ultrasonicated for 20 min, diluted 10-fold into CAMHB, and then serially diluted 2-fold in 0.02% TFA + 0.04% BSA in CAMHB and assayed at a concentration of 0.25 to 128 μg/mL. Assays were set up using the Tecan Freedom EVO liquid handling robot and software (Tecan, Switzerland) with 50 μL of bacterial inoculum and 50 μL of peptide transferred into round-bottom 96-well microtiter plates. Each plate assay was performed in duplicate and incubated at 37 °C for 20 h without agitation. Bacterial growth was assessed using the BIOMIC V3 Image Analysis system (Giles Scientific, USA) and the MIC values were determined visually according to the Clinical and Laboratory Standards Institute (CLSI) guidelines.

[2] = tested on: A. baumannii ATCC 19606; assay: microbe, parasite or virus in culture
Experimental: as §1, §2

[3] = tested on: E. cloacae ATCC 13047; assay: microbe, parasite or virus in culture
Experimental: as §1, §2

[4] = tested on: E. cloacae ATCC 35549; assay: microbe, parasite or virus in culture
Experimental: as §1, §2

[5] = tested on: E. coli ATCC 35218; assay: microbe, parasite or virus in culture; conditions: E. coli 35218
Experimental: as §1, §2

[6] = tested on: E. coli ATCC 43888; assay: microbe, parasite or virus in culture
Experimental: as §1, §2

[7] = tested on: E. faecium ATCC 19434; assay: microbe, parasite or virus in culture
Experimental: as §1, §2

[8] = tested on: E. faecium ATCC 49224; assay: microbe, parasite or virus in culture
Experimental: as §1, §2

[9] = tested on: K. pneumoniae ATCC 13883; assay: microbe, parasite or virus in culture
Experimental: as §1, §2

[10] = tested on: K. pneumoniae ATCC 700603; assay: microbe, parasite or virus in culture; conditions: K. pneumoniae 700603
Experimental: as §1, §2

[11] = tested on: P. aeruginosa ATCC 27853; assay: microbe, parasite or virus in culture
Experimental: as §1, §2

[12] = tested on: P. aeruginosa MRSN 5519; assay: microbe, parasite or virus in culture
Experimental: as §1, §2

[13] = tested on: S. aureus ATCC 25923; assay: microbe, parasite or virus in culture
Experimental: as §1, §2

[14] = tested on: S. aureus ATCC 43300; assay: microbe, parasite or virus in culture; conditions: S. aureus 43300
Experimental: as §1, §2

[15] = tested on: P. aeruginosa PA01; assay: microbe, parasite or virus in culture; type: cell-based; conditions: P. aeruginosa 15692 (PAO1); Week 2 (12/14/2023)
Experimental: as §1, §2

[16] = tested on: P. aeruginosa PA01 (Si); assay: microbe, parasite or virus in culture; type: cell-based
Excerpt: Supplement 41522_2025_837_MOESM13_ESM.xlsx, sheet "Table_S13_ESKAPEE-MIC" | column: Bacterial MIC (µg/mL)

[17] = tested on: K. pneumoniae 4640
[18] = tested on: A. baumannii 5075
[19] = set-up: method as in Biomatik (vendor); conditions: 1.0 mg peptide in 1.0 ml solvent; peptides synthesized by Biomatik; ref Biomatik (vendor); cited from earlier work
[20] = tested on: Batrachochytrium dendrobatidis Bd-GPL strain JEL404; conditions: slope of growth, positive = inhibition, negative = no inhibition
Experimental: Bd-peptide challenge assays were conducted with the crude peptides extracted from the salamander skin secretions and with the 20 synthesized peptides. We followed methods by Pereria et al.[49] to conduct assays with the crude peptides using Bd-GPL strain JEL404 at 1 × 10^6 zoospores/mL. Briefly, skin peptide samples were pooled together based on species-site-injection (Table 1). Skin peptides samples were serially diluted 2-fold in MilliQ (Ultrapure Type 1) water and assayed at a concentration of 2.35–75 μg/mL based on starting peptide concentration available. For synthesized peptides, we conducted assays from 15.6 to 500 μg/ml. In both assays, we quantified percent inhibition of each well using slope of growth[90] in which positive values indicate inhibition and negative values indicate no inhibition.

[21] = A. baumannii 17978, Week 1 (12/6/2023)
[22] = A. baumannii 19606, Week 1 (12/6/2023)
[23] = E. cloacae 13047, Week 1 (12/6/2023)
[24] = E. cloacae 35549, Week 1 (12/6/2023)
[25] = E. coli 43888, Week 1 (12/6/2023)
[26] = E. faecium 19434, Week 1 (12/6/2023)
[27] = E. faecium 49224, Week 1 (12/6/2023)
[28] = K. pneumoniae 13883, Week 1 (12/6/2023)
[29] = P. aeruginosa 27853, Week 1 (12/6/2023)
[30] = P. aeruginosa 5519, Week 1 (12/6/2023)
[31] = S. aureus 25923, Week 1 (12/6/2023)
[32] = P. aeruginosa PA01 (Si), not typical ESKAPEE strain, Week 1 (12/6/2023)
[33] = K. pneumoniae 4640, Week 1 (12/6/2023)
[34] = synthesized peptide 15.625 μg/mL
[35] = synthesized peptide 31.25 μg/mL

Compound | Suggest solvent (solubility) [19] | Bacterial MIC [1, 21] [µg/mL] | Bacterial MIC [2, 22] [µg/mL] | Bacterial MIC [3, 23] [µg/mL] | Bacterial MIC [4, 24] [µg/mL] | Bacterial MIC ([5]; Week 1 (12/6/2023)) [µg/mL] | Bacterial MIC [6, 25] [µg/mL] | Bacterial MIC [7, 26] [µg/mL] | Bacterial MIC [8, 27] [µg/mL] | Bacterial MIC [9, 28] [µg/mL] | Bacterial MIC ([10]; Week 1 (12/6/2023)) [µg/mL] | Bacterial MIC [11, 29] [µg/mL] | Bacterial MIC [12, 30] [µg/mL] | Bacterial MIC [13, 31] [µg/mL] | Bacterial MIC ([14]; Week 1 (12/6/2023)) [µg/mL] | Bacterial MIC [16, 32] [µg/mL] | Bacterial MIC [17, 33] [µg/mL] | Bacterial MIC ([18]; Week 1 (12/6/2023)) [µg/mL] | Bd inhibition score (percent inhibition), mean [20, 34] [%] | Bd inhibition score (percent inhibition), mean [20, 35] [%] | other results
RVPPGFSPFR [PrAd-Eb28] | 1.0mg peptide soluble in 1.0ml H2O | – | – | – | – | – | – | – | – | – | – | – | – | – | – | – | – | – | – | – | Bacterial MIC ([1]; ATCC 17978, 20 h): >128.000 µg/mL; Bacterial MIC ([2]; ATCC 19606, 20 h): >128.000 µg/mL; Bacterial MIC ([3]; ATCC 13047, 20 h): >128.000 µg/mL; Bacterial MIC ([4]; ATCC 35549, 20 h): >128.000 µg/mL; Bacterial MIC ([5]; Week 2 (12/14/2023)): >128.000 µg/mL; Bacterial MIC ([6]; ATCC 43888, 20 h): >128.000 µg/mL; Bacterial MIC ([7]; ATCC 19434, 20 h): >128.000 µg/mL; Bacterial MIC ([8]; ATCC 49224, 20 h): >128.000 µg/mL; Bacterial MIC ([9]; ATCC 13883, 20 h): >128.000 µg/mL; Bacterial MIC ([10]; Week 2 (12/14/2023)): >128.000 µg/mL; Bacterial MIC ([11]; ATCC 27853, 20 h): >128.000 µg/mL; Bacterial MIC ([12]; MRSN 5519, 20 h): >128.000 µg/mL; Bacterial MIC ([13]; ATCC 25923, 20 h): >128.000 µg/mL; Bacterial MIC ([14]; Week 2 (12/14/2023)): >128.000 µg/mL; Bacterial MIC [15]: >128.000 µg/mL; Bacterial MIC ([16]; Si): >128.000 µg/mL; Bacterial MIC ([17]; 4640, 20 h): >128.000 µg/mL; Bacterial MIC ([18]; Week 2 (12/14/2023)): >128.000 µg/mL
N=C(N)NCCC[C@H](N)C(=O)N1CCC[C@H]1C(=O)N1CCC[C@H]1C(=O)NCC(=O)N[C@@H](Cc1ccccc1)C(=O)N[C@@H](CO)C(=O)N1CCC[C@H]1C(=O)N[C@@H](Cc1ccccc1)C(=O)O [PrMb-Eb14] | 1.0mg peptide soluble in 1.0ml H2O | >128.000 | >128.000 | >128.000 | >128.000 | >128.000 | >128.000 | >128.000 | >128.000 | >128.000 | >128.000 | >128.000 | >128.000 | >128.000 | >128.000 | >128.000 | >128.000 | >128.000 | – | – | –
NRKGPRPPGFSPFR [PrAd-Eb9] | 1.0mg peptide soluble in 1.0ml H2O | >128.000 | >128.000 | >128.000 | >128.000 | >128.000 | >128.000 | >128.000 | >128.000 | >128.000 | >128.000 | >128.000 | >128.000 | >128.000 | >128.000 | >128.000 | >128.000 | >128.000 | -120.796 | -129.548 | Bd inhibition score (percent inhibition), mean ([20]; synthesized peptide 62.5 μg/mL): -134.776%; Bd inhibition score (percent inhibition), mean ([20]; synthesized peptide 125 μg/mL): -156.474%; Bd inhibition score (percent inhibition), mean ([20]; synthesized peptide 250 μg/mL): -160.396%; Bd inhibition score (percent inhibition), mean ([20]; synthesized peptide 500 μg/mL): -188.605%
KGPRPPGFSPFR [PrMb-Eb7] | 1.0mg peptide soluble in 1.0ml H2O | >128.000 | >128.000 | >128.000 | >128.000 | >128.000 | >128.000 | >128.000 | >128.000 | >128.000 | >128.000 | >128.000 | >128.000 | >128.000 | >128.000 | >128.000 | >128.000 | >128.000 | -125.322 | -116.924 | Bd inhibition score (percent inhibition), mean ([20]; synthesized peptide 62.5 μg/mL): -107.962%; Bd inhibition score (percent inhibition), mean ([20]; synthesized peptide 125 μg/mL): -145.651%; Bd inhibition score (percent inhibition), mean ([20]; synthesized peptide 250 μg/mL): -143.314%; Bd inhibition score (percent inhibition), mean ([20]; synthesized peptide 500 μg/mL): -136.81%
